Values after ≈ are worked out from the molar mass of the structure shown. “Also recorded” adds a separate entry of the source.

These results are taken from paper PMC7911959, “Selective Inhibition of Human Monoamine Oxidase B by 5-hydroxy-2-methyl-chroman-4-one Isolated from an Endogenous Lichen Fungus Daldinia fissa” (Journal of Fungi, 2021).

The target in one data set is T1, Human recombinant MAO-A (Homo sapiens, UniProt P21397).
T1 construct: purchased Sigma-Aldrich
T1 sequence (P21397 1-527): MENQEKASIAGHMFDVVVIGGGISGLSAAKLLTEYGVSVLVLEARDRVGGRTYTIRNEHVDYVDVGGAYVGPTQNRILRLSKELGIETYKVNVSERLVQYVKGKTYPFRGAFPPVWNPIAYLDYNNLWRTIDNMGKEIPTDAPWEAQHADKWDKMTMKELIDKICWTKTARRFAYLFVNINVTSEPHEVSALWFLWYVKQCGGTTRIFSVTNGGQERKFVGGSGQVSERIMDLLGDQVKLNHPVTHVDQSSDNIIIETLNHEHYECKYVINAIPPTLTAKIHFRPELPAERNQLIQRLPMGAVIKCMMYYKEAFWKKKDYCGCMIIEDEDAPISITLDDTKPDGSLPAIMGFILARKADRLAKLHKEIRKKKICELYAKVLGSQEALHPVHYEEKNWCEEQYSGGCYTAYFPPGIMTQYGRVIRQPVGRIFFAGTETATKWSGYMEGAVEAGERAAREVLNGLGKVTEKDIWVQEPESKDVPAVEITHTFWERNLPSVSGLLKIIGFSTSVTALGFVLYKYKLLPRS
Kind of data set: MAO-A activity assay (kynuramine, 316 nm). The class given is biochemical. The protocol: (§1) Human recombinant MAO-A and MAO-B enzymes were used, and the activities were measured in a final volume of 500 µL of 100 mM sodium phosphate buffer of pH 7.2, and 0.06 mM kynuramine (MAO-A), or 0.3 mM benzylamine (MAO-B).
(§2) The inhibitory activities of the isolated compounds were analyzed at a concentration of 2 µg/mL.

Data set [1] is described as follows: DPPH antioxidant activity assay. The following applies: isolated compounds, 100 µg/mL (footnote b). The protocol:
The antioxidant activity was measured at 100 µg/mL of the extracts using 0.1 mM 2,2-diphenyl-1-picrylhydrazyl (DPPH). After 15 min of pre-incubation, absorbance was measured at 517 nm.

Data set [2] concerns T2, MAO-B.
T2 construct: purchased Sigma-Aldrich
Kind of data set: Inhibitor reversibility analysis by dialysis. The class given is biochemical, human. The following applies: for MAO-B activity recovered after dialysis: ~2× IC50, dialyzed; for MAO-B activity before dialysis (undialyzed): ~2× IC50, undialyzed.

Data set [3] deals with HL-60 (human acute promyelocytic leukemia) cells. Kind of data set: Cytotoxicity, CCK-8 assay, HL-60. Conditions: 50 µM, 24 h treatment, CCK-8 4 h. The data set is classed as cell-based. The protocol: (§3) Cell viability was determined according to the cell counting kit (CCK)-8 assay method, using MDCK (Madin–Darby canine kidney) and HL-60 (human acute promyelocytic leukemia) cells, as normal and cancer cells, respectively. Briefly, MDCK and HL-60 cells were resuspended in Dulbecco’s modified eagle medium (DMEM) and Roswell Park Memorial Institute (RPMI)-1640, respectively, at 1 × 10^5 and 3 × 10^5 cells/mL, respectively. The cell suspension (100 µL) was added to each well of the 96-well plate and was incubated for 24 h at 5% CO2 and 37 °C. After incubation, 100 µL of the medium supplemented with 1, 3, 10, 30, and 50 µM of the compound was added to each well and incubated again. After 24 h, 100 µL of the solution was removed from each well, and CCK-8 (10 µL/well) was dispensed. After 2~4 h, the absorbance was detected at 450 nm with a microplate reader (Versamax, Molecular Devices, CA, USA).

The subject of data set [4] is MDCK (Madin–Darby canine kidney) cells. In words: Cytotoxicity, CCK-8 assay, MDCK. The data set is classed as cell-based. The following applies: 50 µM, 24 h treatment, CCK-8 3 h. The protocol:
as §3

The next data set deals with T3, BACE-1.
T3 construct: purchased Sigma-Aldrich
Kind of data set: BACE-1 activity assay (detection kit, fluorescence). The class given is biochemical. The following applies: isolated compounds, residual activity at 10 µg/mL (footnote a). The protocol:
BACE-1 assay was carried out using the BACE-1 activity detection kit and a fluorescence spectrometer (FS-2, Scinco, Seoul, Korea) by an excitation at 320 nm and an emission at 405 nm, after the reaction for 2 h at 37 °C [24].

For the next data set, the target named is T4, electric eel AChE (Electrophorus electricus, UniProt O42275).
T4 construct: purchased Sigma-Aldrich
T4 sequence (O42275 24-633): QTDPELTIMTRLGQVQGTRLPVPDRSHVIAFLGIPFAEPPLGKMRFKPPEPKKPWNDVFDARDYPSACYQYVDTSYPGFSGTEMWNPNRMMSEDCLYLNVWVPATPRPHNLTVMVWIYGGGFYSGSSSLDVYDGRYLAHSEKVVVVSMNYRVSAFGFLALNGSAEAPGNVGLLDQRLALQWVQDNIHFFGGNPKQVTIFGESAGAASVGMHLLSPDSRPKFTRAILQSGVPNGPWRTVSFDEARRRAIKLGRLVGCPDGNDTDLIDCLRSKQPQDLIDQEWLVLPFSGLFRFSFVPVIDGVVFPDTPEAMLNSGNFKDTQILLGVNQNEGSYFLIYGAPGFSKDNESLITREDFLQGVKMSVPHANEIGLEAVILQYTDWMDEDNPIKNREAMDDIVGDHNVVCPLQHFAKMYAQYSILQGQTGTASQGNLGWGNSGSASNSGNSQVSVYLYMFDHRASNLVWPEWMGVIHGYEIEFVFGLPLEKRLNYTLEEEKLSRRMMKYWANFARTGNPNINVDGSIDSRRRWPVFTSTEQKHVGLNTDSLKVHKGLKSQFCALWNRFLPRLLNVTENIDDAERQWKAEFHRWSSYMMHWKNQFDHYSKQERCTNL
In words: biochemical. As for the experimental part: (§4) For cholinesterase activity assay, electric eel AChE and horse serum BChE were used. Activities were measured according to the Ellman method, with slight modifications, in 50 mM sodium phosphate buffer (pH 7.5). After adding cholinesterase enzymes and the inhibitor, pre-incubation was applied for 15 min. After adding 0.5 mM 5,5-dithiobis (2-nitrobenzoic acid) (DTNB) 0.5 mM for color development, 0.5 mM acetyl thiocholine iodide (ATCI) or 0.5 mM butyrylthiocholine iodide (BTCI) was used as a substrate.

For another data set, the target named is T5, horse serum BChE (Equus caballus, UniProt P81908).
T5 construct: electric eel AChE and horse serum BChE were used; purchased Sigma-Aldrich; host or cells: horse serum
T5 sequence (P81908 whole entry): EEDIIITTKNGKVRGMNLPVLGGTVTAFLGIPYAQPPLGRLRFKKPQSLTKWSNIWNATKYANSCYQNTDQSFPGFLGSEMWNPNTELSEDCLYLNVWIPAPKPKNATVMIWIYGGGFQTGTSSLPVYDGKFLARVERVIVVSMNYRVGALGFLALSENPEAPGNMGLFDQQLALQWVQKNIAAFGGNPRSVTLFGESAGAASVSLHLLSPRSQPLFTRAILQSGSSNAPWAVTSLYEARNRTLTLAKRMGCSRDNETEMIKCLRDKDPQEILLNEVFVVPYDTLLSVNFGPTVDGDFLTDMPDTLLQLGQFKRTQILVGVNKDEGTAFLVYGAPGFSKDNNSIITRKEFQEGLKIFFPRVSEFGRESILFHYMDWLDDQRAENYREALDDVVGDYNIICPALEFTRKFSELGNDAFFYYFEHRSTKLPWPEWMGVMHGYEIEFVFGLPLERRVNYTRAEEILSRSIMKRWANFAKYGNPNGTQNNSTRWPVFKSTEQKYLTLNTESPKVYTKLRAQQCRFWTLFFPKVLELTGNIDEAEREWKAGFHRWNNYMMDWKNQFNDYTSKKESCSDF
Kind of data set: biochemical. As for the experimental part:
as §4

The next data set addresses T6, Human recombinant MAO-B (Homo sapiens, UniProt P27338).
T6 construct: purchased Sigma-Aldrich
T6 sequence (P27338 1-520): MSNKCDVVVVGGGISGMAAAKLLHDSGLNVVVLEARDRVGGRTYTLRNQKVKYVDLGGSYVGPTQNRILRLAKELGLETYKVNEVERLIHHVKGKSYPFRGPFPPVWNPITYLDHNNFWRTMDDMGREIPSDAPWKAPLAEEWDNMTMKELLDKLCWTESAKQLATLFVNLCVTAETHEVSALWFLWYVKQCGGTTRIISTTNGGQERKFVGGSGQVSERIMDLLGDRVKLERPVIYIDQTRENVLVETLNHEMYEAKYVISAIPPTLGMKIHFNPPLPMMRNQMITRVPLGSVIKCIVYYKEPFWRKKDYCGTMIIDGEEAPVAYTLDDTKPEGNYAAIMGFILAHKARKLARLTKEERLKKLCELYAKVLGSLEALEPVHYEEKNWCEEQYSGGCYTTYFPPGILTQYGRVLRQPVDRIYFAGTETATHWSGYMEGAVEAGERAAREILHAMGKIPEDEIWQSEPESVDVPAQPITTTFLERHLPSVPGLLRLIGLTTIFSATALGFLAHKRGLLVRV
In words: MAO-B activity assay (benzylamine, 250 nm). The data set is classed as biochemical. As for the experimental part:
as §1, §2

The target of data set [5] is T2, MAO-B. The following applies: co-crystallized ligand of PDB 4A79; reference not given; cited from earlier work.
In the next data set the test system is liver or brain MAO. The following applies: read-out: IC50 MAO enzyme; cited from earlier work.
For the next data set, the target named is monoamine oxidase. Also noted: method as in PMID 27520493. The following applies: cited from earlier work.

As for `CC1CC(=O)c2c(O)cccc2O1` (centres unmarked) [HMC, 5-hydroxy-2-methyl-chroman-4-one], the IC50 on Human recombinant MAO-A is 14 ± 2.07 µM; against electric eel AChE, over 40 µM; on horse serum BChE it was over 40 µM; on Human recombinant MAO-B it was 3.23 ± 0.3 µM. Besides, the remaining activity at 2 µg/mL came out at 55.8 ± 0.91% at Human recombinant MAO-A (isolated compounds, 2 µg/mL, read-out: Residual Activity at 2 µg/mL (%) MAO-A); 73 ± 1.13% on electric eel AChE (isolated compounds, 2 µg/mL, read-out: Residual Activity at 2 µg/mL (%) AChE); 83.8 ± 5.89% on horse serum BChE (isolated compounds, 2 µg/mL, read-out: Residual Activity at 2 µg/mL (%) BChE); 13.2 ± 0.48% on Human recombinant MAO-B (isolated compounds, 2 µg/mL, read-out: Residual Activity at 2 µg/mL (%) MAO-B). Moreover, the “% Inhibition DPPH” value in data set [1] is reported as 25.11 ± 2.12%. In the data set with MAO-B [2] (dialysis, ~2× IC50), the “Reversibility of MAO-B inhibition” value was “reversible inhibitor”. In the data set on MAO-B [2], the “MAO-B activity recovered after dialysis” value is on record as 80.6%. The “MAO-B activity before dialysis (undialyzed)” value in the data set on MAO-B [2] is 23.1%. In addition, the “Cell viability, HL-60” value in data set [3] is “No cytotoxicity; also recorded: not decreased at all”. In addition, the “Cell viability, MDCK” value in [4] was “No cytotoxicity; also recorded: not decreased at all”. Also, the “Residual Activity (%) BACE-1” value with BACE-1 came out at 98.6 ± 2.04%. Besides, the “Inhibition pattern (Lineweaver–Burk plots)” value at Human recombinant MAO-B (MAO-B) is reported as “competitive inhibitor”. Besides, at Human recombinant MAO-B (preincubation up to 30 min), the “Time-dependency: residual activities after preincubation” value is “not changed significantly”. Also, the “Selectivity for MAO-B compared to MAO-A” value at Human recombinant MAO-B (ratio of IC50 values) is on record as ~ 4 fold. Moreover, at Human recombinant MAO-B (secondary plot of Lineweaver–Burk slopes vs inhibitor concentration), the Ki stood at 0.896 µM.

In the case of `NCCNC(=O)c1ccc(Cl)cn1` [Lazabemide, reference compound], in the data set on MAO-B [2], the “MAO-B activity recovered after dialysis” value was 74.4% and the “MAO-B activity before dialysis (undialyzed)” value stood at 26.0%.

With `CCc1ccc(CCOc2ccc(CC3SC(=O)NC3=O)cc2)nc1` (centres unmarked) [P1B, pioglitazone], the Ki on MAO-B [5] was 0.5 µM.

Consider `C#CCN(C)Cc1ccccc1` [Pargyline, reference compound], for which the “MAO-B activity recovered after dialysis” value in the data set on MAO-B [2] is listed as “not recovered at all”.

`CCCCCC(=O)c1c(O)cc2c(c1O)C(=O)c1c(O)cc(OC)cc1C2=O` [Solorinic acid]: the half-inhibitory concentration (IC50) with liver or brain MAO is 14.3 µM.

With `CC1Cc2cccc(O)c2C(=O)O1` (centres unmarked) [mellein, Mellein], on monoamine oxidase, the 50% inhibitory concentration (IC50) is 50.2 µM and the IC50 monoamine oxidase is given as 8.93 µg/mL (≈ 50.1 µM).
